“And” between values parts separate entries of the source, which are not always exact repeats. Equal values may be shown once.
Assay: Oral administration pharmacokinetic studies in rats (thiorphan plasma concentration, HPLC)
Format: in vivo, Sprague Dawley rats
Method: Formulations were administered to rats at doses expected to be pharmacologically effective for estimation of the bioavailability. Blood was drawn at specified time points and plasma concentration of thiorphan was assessed.
Animals: Sprague Dawley rats, approximate weight 250 g. Animal preparation: Deprived of food (but not of water) during 18 h preceding dosing. Mode of administration: thiorphan (i.v.) and racecadotril (p.o.) by oral gavage. Blood sampling volume: 300 μl/per sample.
Blood was drawn at specified time points. Plasma was immediately frozen and kept at −80° C. for assessment of thiorphan concentration by HPLC.
Formulation nr. 8 (example 2) was administered to rats p.o. at dose of 20 mg/kg. One group of rats was given thiorphan i.v. at a dose of 13.4 mg/kg as a reference. […]

[1] = individual rats, thiorphan i.v. 13.4 mg/kg, 13.4 mg/kg

For `O=C(O)CNC(=O)C(CS)Cc1ccccc1` (centres unmarked) [Thiorphan, thiorphan], the AUC(0-inf) (Sprague Dawley, rat, plasma, iv, 13.4 mg/kg, average of 3 rats, thiorphan i.v. 13.4 mg/kg, read-out: AUCinf (thiorphan), Avg) was 1.71 µg·h/mL, the Cmax (Sprague Dawley, rat, plasma, iv, 13.4 mg/kg, individual rats, thiorphan i.v. 13.4 mg/kg) was 15.9 µg/mL and the Tmax (Sprague Dawley, rat, plasma, iv, individual rats, thiorphan i.v. 13.4 mg/kg) was 1.98 min. The “AUCinf (thiorphan)” value [1] was 2.403 µg·h/mL and 1.857 µg·h/mL and 0.871 µg·h/mL, the “AUCt (thiorphan)” value [1] was 2.392 µg·h/mL and 1.843 µg·h/mL and 0.857 µg·h/mL and the “Cmax (thiorphan)” value [1] was 17.649 µg/mL and 21.914 µg/mL. For the same compound, the “T_half (thiorphan)” value [1] was 1.31 h and 0.57 h and 1.81 h and the “Rel BA (%)” value (thiorphan i.v. 13.4 mg/kg (reference)) was 100%.

— patent publication US20190021992A1, “NEW IMPROVED COMPOSITION COMPRISING AT LEAST ONE CADOTRIL” (Johnson & Johnson Consumer Inc., priority 2016, published 2019)
